Experimental data: patent US8389739B1, “Modulators of retinoid-related orphan receptor gamma” (Orphagen Pharmaceuticals, priority 2006, dated 2013)
“Also recorded” adds a separate entry of the source. Like-named read-outs stand apart in the source and are kept apart here. One block for each compound: values may come before it.

Assays:
[1] = test system: TH-17 cell differentiation from naïve CD4+ T cells; assay: Differentiation of naïve CD4+ T cells, intracellular IL-17/IFN-γ staining by FACS (TH-17 protocol, TGFβ + IL-6); type: cell-based, mouse; conditions: for Cell Frequency (%) Th-17 Differentiation IFN-γ^+ / Cell Frequency (%) Th-17 Differentiation IL-17^+: Table 11, 3 μM; for Cell Frequency (%) Th-17 Differentiation IFN-γ^+: DMSO vehicle 1.03%; for Cell Frequency (%) Th-17 Differentiation IL-17^+: DMSO vehicle 3.81%
[2] = test system: human IL-17 release from PBMCs; assay: Human IL-17 release from Con A stimulated PBMCs (ELISA); type: cell-based; conditions: 1 μg/ml Con A, 3 days; for Con A stimulated IL-17 release into culture medium: 3 μM; for reversal of antagonist effect on IL-17 release by agonist: 3 μM each
Text: We also investigated whether human IL-17 is subject to regulation by RORγ ligands.

[3] = molecular target: T1, mLXRα (Liver X receptor alpha) (Mus musculus, UniProt Q9Z0Y9); assay: Transcriptional assay of LXRα (Gal4-LXRα hybrid); type: cell-based
T1 construct: 172-455; expressed in transfected cells; host or cells: CHO cells, transient transfection
T1 sequence (Q9Z0Y9 172-445 limits assumed): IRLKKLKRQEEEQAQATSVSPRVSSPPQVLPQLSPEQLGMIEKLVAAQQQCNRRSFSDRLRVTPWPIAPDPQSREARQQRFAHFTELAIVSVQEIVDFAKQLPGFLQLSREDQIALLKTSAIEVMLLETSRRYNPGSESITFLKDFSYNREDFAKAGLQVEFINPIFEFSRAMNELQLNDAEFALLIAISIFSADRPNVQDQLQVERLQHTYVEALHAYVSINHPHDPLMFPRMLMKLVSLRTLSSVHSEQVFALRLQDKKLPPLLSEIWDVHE
Procedure: (§1) A firefly luciferase reporter gene for Gal4 DBD hybrid receptors, such as Gal4-RORγ, contains five copies of the Gal4 17-mer response element in its promoter and the coding sequence for firefly luciferase (pG5-luc, Promega). CHO (Chinese Hamster Ovary) cells were cultured in Ham's F12 medium supplemented with 10% fetal calf serum (Gemini Biologicals), 10 μg/ml penicillin and streptomycin, and were maintained in a humidified 37° C. incubator (Thermo Electron, Steri-Cycle) with 5% CO2. 24 hours before transfection, cells were plated in T175 flasks (5×10^6 cells/flask) or T75 flasks (1.7×10^6 cells/flask). Transient transfection of CHO cells was performed using TransIT-CHO reagents (Minis, Madison, Wis.) with a mixing ratio of 2:6:1 between plasmid DNA (in μg), TransIT-CHO (in μl) and CHO-mojo (in μl).
(§2) Plates are maintained at 37° C. in a humidified atmosphere with 7% CO2 overnight. Four (4) hours after cell seeding, compounds dissolved in DMSO at 10 mM were added to cells at final concentrations of 20 micromolar (μM) to 20 nanomolar (nM) in 0.2% DMSO in triplicate plates. Approximately 40 hours later, cytotoxicity in the assay well was characterized by addition of the dye resazurin (O'Brien, Wilson et al. 2000) to a final concentration of 3 μM. […] Percent viability was determined as 2 hour fluorescence, minus background at t=0 hours, normalized to DMSO controls. For detection of luciferase activity, media was removed from plates after the measurement of resazurin conversion, and SteadyLite luciferase reagent (Perkin-Elmer) was added (30 μl/well). Luminescence is detected with a Victor 2-V plate reader (Perkin-Elmer) and normalized to luciferase activity of DMSO control wells alone.
A transcriptional assay for LXRα, using a Gal4-LXRα hybrid, was implemented in order to compare RORγ ligand potencies. In addition to LXRα, transcriptional assays for a number of other major nuclear receptors were developed.

human RORγ = molecular target: T2, human RORγ (Homo sapiens, UniProt P51449); assay: Transcriptional assay of human RORγ (Gal4-hRORγ); type: cell-based; conditions: Table 4B
T2 construct: expressed in transfected cells; host or cells: CHO cells, transient transfection
T2 sequence (P51449 253-518): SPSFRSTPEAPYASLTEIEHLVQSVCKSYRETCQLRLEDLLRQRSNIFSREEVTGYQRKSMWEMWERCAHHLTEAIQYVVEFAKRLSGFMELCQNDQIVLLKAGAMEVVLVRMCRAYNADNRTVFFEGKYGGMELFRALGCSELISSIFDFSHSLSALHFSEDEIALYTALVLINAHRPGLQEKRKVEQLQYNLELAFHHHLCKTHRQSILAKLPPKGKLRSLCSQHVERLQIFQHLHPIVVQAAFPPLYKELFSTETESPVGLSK
Procedure: The complete Gal4-hRORγ nucleotide sequence is shown below:
as §1, §2

[4] = test system: TH1 cell differentiation from naïve CD4+ T cells; assay: Differentiation of naïve CD4+ T cells with IL-12 (Th-1 protocol), IFN-γ staining by FACS; type: cell-based, mouse; conditions: for effect on TH1 cell differentiation: in the presence of IL-12
[5] = test system: IL-22 release in lymph node cultures; assay: Lymph node cell cultures from MOG-immunized C57BL/6 mice, IL-22 ELISA; type: cell-based
Procedure: FIGS. 15A-B. IL-22 release in lymph node cultures is regulated by RORγ ligands. Lymph node cells from MOG-immunized C57BL/6 mice were cultured for 3 days with 30 μg/ml MOG, […] IL-23 (FIG. 15A) and 3 μM compounds (FIG. 15B). Culture media were analyzed by IL-22 ELISA.
ELISA kits for mouse IL-17 and human IL-17 were from eBioscience (San Diego, Calif.). ELISA assays were performed following the manufacturer's protocol. Certain samples were diluted 20-fold to avoid maximization of enzymatic signals. For mouse IL-22 ELISA, antibodies and standards were from Antigenix America (Huntington Station, N.Y.) and accessory components were from eBioscience. The IL-22 assay protocol was similar to that of the IL-17 assays.
The proinflammatory cytokine IL-22 is also expressed in Th-17 cells. […] In addition, IL-22 seems to have 30-50 fold higher levels than IL-17. […] This is illustrated in FIG. 15.

[6] = Table 6, read-out: Potency (EC50) at mLXRα
[7] = Table 9, 3 μM (combination 3 μM each), 4 ng/ml TGFβ and 20 ng/ml IL-6, DMSO 2.32%
[8] = Table 9, 3 μM (combination 3 μM each), DMSO 1.60%
[9] = Table 9, 3 μM (combination 3 μM each), 10 ng/ml IL-12, DMSO 36.3%

SMILES: CC(=O)O[C@H]1CC[C@@]2(C)C(CC[C@]3(C)C2C(=O)C=C2C4[C@@H](C)[C@H](C)CC[C@]4(C(=O)O)CC[C@]23C)C1(C)C (stereo in doubt) [OR-13571, 10-Acetoxy-1,2,6a,6b,9,9,12a-heptamethyl-13-oxo-1,3,4,5,6,6a,6b,7,8,8a,9,10,11,12,12a,12b,13,14b-octadecahydro-2H-picene-4a-carboxylic acid]
- effect on TH-17 cell differentiation [1]: exerted a similar effect on TH-17 differentiation as OR-885 and OR-1050; also recorded: inhibits TH-17 differentiation
- Cell Frequency (%) Th-17 Differentiation IFN-γ^+ [1]: 0.93%
- Cell Frequency (%) Th-17 Differentiation IL-17^+ [1]: 1.42%
- Con A stimulated IL-17 release into culture medium [2]: inhibited
- EC50 [3, 6]: > 10 µM
- EC50 (human RORγ): 0.2 µM

- Emax [3]: > 80%
- potency in repression of RORγ transcription relative to induction of LXR transcription [3]: approximately 5 fold
- EC50 [3, 6]: 1 to 10 µM
- specificity for RORγ versus LXRα ([3]; comparison of transcriptional assays for RORγ and LXRα (Table 7)): more specific for RORγ than LXRα
- EC50 ([3]; read-out: EC50 at LXRα in transcriptional assays): 1.5 µM
- EC50 (human RORγ): 0.4 µM
SMILES: CCN(c1ccc(C(O)(C(F)(F)F)C(F)(F)F)cc1)S(=O)(=O)c1ccc([N+](=O)[O-])cc1 [OR-1050, N-Ethyl-4-nitro-N-[4-(2,2,2-trifluoro-1-hydroxy-1-trifluoromethyl-ethyl)-phenyl]-benzenesulfonamide]
- effect on TH-17 cell differentiation [1]: significantly inhibited TH-17 cell differentiation in a dose-dependent manner; also recorded: decreases the proportion of IL-17^+ cells
- Cell Frequency (%) TH-17 Protocol IL-17^+ [1, 7]: 0.44%
- Cell Frequency (%) TH-17 Protocol IFN-γ^+ [1, 8]: 1.42%
- Cell Frequency (%) Th-17 Differentiation IFN-γ^+ [1]: 1.09%
- Cell Frequency (%) Th-17 Differentiation IL-17^+ [1]: 1.47%
- Con A stimulated IL-17 release into culture medium [2]: inhibited
- Cell Frequency (%) Th-1 Protocol IFN-γ^+ [4, 9]: 37.4%
- effect on TH1 cell differentiation ([4]; 3 μM): does not inhibit TH1 differentiation
- IL-22 production in LN cultures ([5]; 3 μM each (FIG. 15)): inhibited

- Emax [3]: 100%
- EC50 [3, 6]: 0.1 to 1 µM
- EC50 ([3]; Table 7, no unit printed for this column (b114 gives 1.5 μM for OR-1050), read-out: Transcriptional Assay of LXRα EC50): 0.14 µM
- Efficacy at mLXRα ([3]; activity of standard ligand at 20 μM): 120X
SMILES: O=S(=O)(c1ccccc1)N(CC(F)(F)F)c1ccc(C(O)(C(F)(F)F)C(F)(F)F)cc1 [Compound T0901317, N-(2,2,2-Trifluoro-ethyl)-N-[4-(2,2,2-trifluoro-1-hydroxy-1-trifluoromethyl-ethyl)-phenyl]-benzenesulfonamide, reference compound]

SMILES: COC(C)CCC(C)C1CCC2C3CC(O)C4CC(O)CCC4(C)C3CCC12C (stereo not shown) [OR-12872, 17-(4-Methoxy-1-methyl-pentyl)-10,13-dimethyl-hexadecahydro-cyclopenta[a]phenanthrene-3,6-diol]
- effect on TH-17 cell differentiation [1]: stimulatory; also recorded: able to reverse the effect of OR-1050; also recorded: increases the fraction of IL-17^+ cells
- elevation of TH-17 frequency by agonist alone ([1]; 3 μM (FIG. 8)): 60%
- increase of TH-17 frequency from the lower baseline produced by OR-1050 ([1]; 3 μM agonist in the presence of 3 μM OR-1050 (FIG. 8)): 400%
- Cell Frequency (%) TH-17 Protocol IL-17^+ [1, 7]: 3.91%
- Cell Frequency (%) TH-17 Protocol IFN-γ^+ [1, 8]: 1.37%
- Cell Frequency (%) TH-17 Protocol IFN-γ^+ ([1]; Table 10, 1 μM, DMSO vehicle 0.71%): 0.65%
- Cell Frequency (%) TH-17 Protocol IL-17^+ ([1]; Table 10, 1 μM, DMSO vehicle 2.46%): 3.96%
- reversal of antagonist effect on IL-17 release by agonist [2]: partly reverse the effects of OR-1050 and OR-13571
- Con A stimulated IL-17 release into culture medium [2]: does not significantly alter IL-17 release
- Cell Frequency (%) Th-1 Protocol IFN-γ^+ [4, 9]: 41.4%
- Cell Frequency (%) Th-1 Protocol IFN-γ^+ ([4]; Table 10, 1 μM, DMSO vehicle 29.7%): 30.8%
- effect on TH1 cell differentiation ([4]; 3 μM): Neither 3 μM OR-1050 nor 3 μM OR-12872 had an effect on the frequency of TH1 cell differentiation
- EC50 [3, 6]: > 10 µM
- IL-22 production in LN cultures ([5]; 3 μM each (FIG. 15)): enhanced

SMILES: C[C@@H]1CC[C@@]2(OC1)O[C@H]1C[C@H]3[C@@H]4CC[C@H]5C[C@@H](O)CC[C@]5(C)[C@H]4C[C@@H](O)[C@]3(C)[C@H]1[C@@H]2C [OR-885, 5α,20α, 22α, 25D-SPIROSTAN-3β, 12β-DIOL]
- Cell Frequency (%) TH-17 Protocol IFN-γ^+ [1]: 1.45%
- Cell Frequency (%) TH-17 Protocol IL-17^+ [1]: 0.52%
- effect on TH-17 cell differentiation [1]: blocks the differentiation of TH-17 cells
- reversal of antagonist effect on IL-17 release by agonist [2]: partially reversible by OR-12872
- Cell Frequency (%) Th-1 Protocol IFN-γ^+ ([4]; Table 10, 3 μM, DMSO vehicle 29.7%): 34.2%
- EC50 [3]: > 10 µM
- EC50 (human RORγ): 5.1 µM
- EC50 (μM), transcriptional assay of human RORγ (human RORγ): significantly less potent at hRORγ
- IL-22 production in LN cultures [5]: inhibited

- EC50 [3, 6]: > 10 µM
- EC50 (human RORγ): 6.8 µM
SMILES: CCn1c(CNc2ccc(Cl)cc2)nnc1SCC(=O)Nc1cccc2ccccc12 [OR-133008, 2-{5-[(4-Chloro-phenylamino)-methyl]-4-ethyl-4H-[1,2,4]triazol-3-ylsulfanyl}-N-naphthalen-1-yl-acetamide]

- EC50 [3, 6]: > 10 µM
- EC50 (human RORγ): 1 µM
SMILES: COc1c(C=NNc2nc(N3CCCCC3)nc(N3CCCCC3)n2)cccc1[N+](=O)[O-] [OR-2161, N-(4,6-Di-piperidin-1-yl-[1,3,5]triazin-2-yl)-N′-(2-methoxy-3-nitro-benzylidene)-hydrazine]
